Measurements reported in patent publication US20070191287A1, “D-ribose for improving depression-like symptoms” (priority 2004, published 2007).

How the values were obtained:
mice = experiment: forced swimming test in mice; assay type: in vivo, mice (ddY-strain)
Protocol: Male 10 ddY-strain mice (5 weeks old, purchased from Japan SLC, Inc.) were used for each group as test animals. The animals were housed in groups of 20 mice in a plastic-made cage (26×43×16 cm; Clea Japan Inc.), and they were kept in the animal room maintained at 23±2° C. with 30 to 80% humidity, and illuminated for 12 hr (6:30 to 18:30). The animals were allowed free access to pellet diets (CRF-1, Oriental Yeast, Co., Ltd.), and tap water.
The experiment was carried out on the four groups, such as the groups treated with D-ribose at doses of 30 mg/kg, 100 mg/kg, 300 mg/kg, and the control group. The animals were grouped based on the body weights which had been previously measured prior to the experiment so that the average body weight of each group becomes equal. D-ribose was dissolved in distilled water and administered orally at 10 ml/kg once a day and repeatedly for one week in mice. To the control group, distilled water was administered orally instead of aqueous D-ribose solution. […] Briefly, the animals were forced to swim twice, i.e., for 15 minutes prior to the treatment of a test compound or distilled water on the day before the final administration, and further for 5 minutes one hour after the final administration on the following day. That is, the mice were forced to swim in a clear polycarbonate-made measuring cylinder (internal diameter: 10 cm, height: 25 cm) containing water up to a height of 10 cm at a temperature of 250° C., and the duration of the immobility during the second swimming was recorded.
The results were expressed as mean±standard error for each group. The significant differences between the groups were studied by Dunnett's multiple comparison test with a significance level of 5%.
Male10 ddY-strain male mice (5 weeks old, purchased from Japan SLC, Inc.) were used for each group as test animals. The animals were kept under the same conditions as in Example 1. The experiment was carried out on the four groups, such as the groups treated with D-ribose 100 mg/kg, potassium magnesium aspartate (Mg.K aspartate) 50 mg/kg, and D-ribose 100 mg/kg+Mg.K aspartate 50 mg/kg, and the control group. The animals were grouped based on the body weights which had been previously measured prior to the experiment so that the average body weight of each group becomes equal. D-ribose and potassium magnesium aspartate were dissolved in distilled water and administered orally at 10 ml/kg once a day and repeatedly for one week. […]
Male 10 ddY-strain mice (5 weeks old, purchased from Japan SLC, Inc.) were used for each group as test animals. The animals were grouped based on the body weights which had been previously measured prior to the experiment so that the average body weight of each group becomes equal. […]

[1] = tested on: reserpine-induced hypothermia; experiment: reserpine-induced hypothermia competitive test; assay type: in vivo, mice (ddY-strain)
Protocol: Male 8 ddY-strain mice (5 weeks old, purchased from Japan SLC, Inc.) were used for each group as test animals. The animals were kept under the same conditions as in Example 1. The experiment was carried out on the four groups such as the groups treated with D-ribose at doses of 30 mg/kg, 100 mg/kg, 300 mg/kg, and the control group. The animals were grouped based on the body temperature (rectal temperature) which had been previously measured prior to the experiment so that the average body temperature of each group becomes equal. D-ribose was dissolved in distilled water and administered orally at 10 ml/kg once a day and repeatedly for one week. To the control group, distilled water was administered orally instead of aqueous D-ribose solution. The reserpine-induced hypothermia competitive test was a modification of the method of Wachtel (cf., Neuropharmacology, 22 (3), p. 267-272 (1983)). Namely, a solution of reserpine (Daiichi Pharmaceutical Co. Ltd.) in an aqueous propylene glycol solution was subcutaneously administered to the mice in each group at a dose of 1 mg/kg (i.e., in an amount of 10 ml/kg) just before administration of a test compound or distilled water, and subsequently, D-ribose or distilled water were administered orally to the mice, and then the rectal temperature of each mouse was measured on 1, 2, 4, 6 and 8 hours after administration of D-ribose or distilled water. In the experiment, the reserpine treatment and the administration of the test compound were carried out during from 10:00 AM to 11:00 AM. The results were expressed as mean±standard error in each group. The significant differences between the groups were studied by Bonferroni/Dun multiple comparison test with a significance level of 5%. Male 8 ddY-strain mice (5 weeks old, purchased from Japan SLC, Inc.) were used for each group as test animals. The animals were kept under the same conditions as in Example 1. […] To the control group, distilled water was administered orally. The grouping, the administration of reserpine and the measurement of body temperature were carried out in the same manner as in Example 3. The results were expressed as mean±standard error for each group. The significant differences between the groups were studied by Bonferroni/Dunn multiple comparison test with a significance level of 5%.

rats = experiment: soaking fatigue test in rats; assay type: in vivo, rats (SD-strain); conditions: orally twice a day divided, 5 days
Protocol: Male 10 SD-strain rats (7 weeks old, purchased from Japan SLC, Inc.) were used for each group as test animals. The animals were grouped based on the body weights which had been previously measured prior to the experiment so that the average body weight of each group becomes equal. The animals were kept under the same conditions as in Example 1. The experiment was carried out on the 3 groups, such as the groups treated with D-ribose at doses of 300 mg/kg, 1000 mg/kg, and the control group. To the D-ribose-treated groups, D-ribose was dissolved in distilled water for injection in a predetermined amount for each body weight, and the resulting aqueous solution was mandatorily administered orally to the rats at a dose of 10 ml/kg. To the control group, distilled water for injection was mandatorily administered orally instead of aqueous D-ribose solution at a dose of 10 ml/kg.
The soaking fatigue test in rats was carried out by a modification of the method of Tanaka (cf., Igaku-no-Ayumi, 204 (5), 362-364 (2003)). Briefly, the rats in each group were kept in a cage where water at 23±1° C. was filled at a water depth of about 1.5 cm for 5 days, during which D-ribose was orally administered to the rats twice a day at 10 A.M. and 3 P.M. with divided amount of the daily dose (300 mg/kg or 1000 mg/kg), i.e., at each time 150 mg/kg or 500 mg/kg, respectively, for 5 days in a row. Twenty-four hours after the last administration, the rats were loaded with a weight (about 20 g, about 8°% of the body weight) at a position of about ⅘ distant from the root. Each rat was forced to swim individually in a clear acrylic cylindrical water bath (inner diameter: 25 cm, height: 60 cm) containing warm water (25±2° C., water-depth: 50 cm). The time from the beginning of swimming until the nose of the rat sank down into the water for more than 10 seconds was measured.
The results were expressed as mean±standard error for each group. The significant differences between the groups were studied by Bonferroni/Dun multiple comparison test with a significance level of 5%.

human = experiment: evaluation of effect of maintaining concentration in human (random number table test); assay type: in vivo; conditions: healthy volunteers; D-ribose 2.2 g/day for 7 days, crossover vs dextrin control
Source text: The effect of maintaining concentration by D-ribose in human can be evaluated by the test using a random number table (cf., Sports Mental Training for Winning Games, written by Yoshihide TAKAHATA, published by NATSUME CO, LTD., 2003).
Twenty healthy volunteers are grouped into two groups, i.e., the D-ribose 2.2 g/day-treated group, and the control group. The volunteers in the D-ribose 2.2 g/day-treated group take an aqueous solution of D-ribose (2.2 g), a roasted green tea extra (0.24 g) and sucralose (2 mg) in distilled water for injection per day. The volunteers in the control group take an aqueous solution of dextrin (2.2 g), a roasted green tea extra (0.24 g) and sucralose (2 mg) in distilled water per day. […]
The evaluation test for concentration power is carried out as follows. […] Then, the number of marked cells is compared between both groups and the concentration power is evaluated therefrom.
Further, after one-month washout period from the above evaluation test for concentration power, the volunteers in both groups are exchanged each other, and then the same test is carried out again on the volunteers. Combining the results of these two tests, the effect of maintaining concentration by D-ribose is comprehensively evaluated.

SMILES	duration of immobility (mice; Comparative Example 1, D-ribose 100 mg/kg and 300 mg/kg orally for one week)	duration of immobility (mice; Example 1, 300 mg/kg orally once a day for one week, vs control group)	duration of immobility (mice; Example 2, D-ribose 100 mg/kg alone, orally once a day for one week)	reserpine-induced hypothermia (rectal temperature) ([1]; Example 3, 30 mg/kg orally once a day for one week, reserpine 1 mg/kg s.c.)	reserpine-induced hypothermia (rectal temperature) ([1]; Example 3, 100 mg/kg orally once a day for one week, 4 or 6 hours after administration)	reserpine-induced hypothermia (rectal temperature) ([1]; Example 3, 300 mg/kg orally once a day for one week, 4 or 6 hours after administration)	reserpine-induced hypothermia (rectal temperature) ([1]; Example 4, D-ribose alone 100 mg/kg orally, at 4 and 6 hours after treatment)	anti-fatigue effect (duration of swimming) (rats; 300 mg/kg daily dose, swim 24 h after last administration)	anti-fatigue effect (duration of swimming) (rats; 1000 mg/kg daily dose, stress-related fatigue caused by breeding under soaking)	duration of swimming longer than that in the control group (rats; 1000 mg/kg daily dose, swim 24 h after last administration)	concentration power (number of marked cells) (human)	duration of immobility (mice; Example 2, Mg.K aspartate 50 mg/kg alone, orally once a day for one week)
O=C[C@H](O)[C@H](O)[C@H](O)CO [D-ribose]	dose-depending reduction	significantly reduced	not significantly reduced	not significantly alleviated	significantly and nearly dose-relatively alleviated	significantly and nearly dose-relatively alleviated	significantly alleviated	any significant anti-fatigue effect was observed	significant anti-fatigue effect	about 70%	dominantly maintained	–
N[C@@H](CC(=O)O)C(=O)O.[K+].[Mg+2] [Mg.K aspartate, potassium magnesium aspartate]	–	–	–	–	–	–	–	–	–	–	–	not significantly reduced
